These results are taken from patent publication US4755594A, “N^6 -substituted adenosines” (Warner-Lambert Company, priority 1986, dated 1988).

One series has as its target T1, adenosine A1 receptor (Rattus norvegicus, UniProt P25099).
T1 construct: Whole brain minus cerebellum and brainstem from male Long-Evans rats; from tissue; host or cells: whole brain minus cerebellum and brainstem, male Long-Evans rats
T1 sequence (P25099 1-326): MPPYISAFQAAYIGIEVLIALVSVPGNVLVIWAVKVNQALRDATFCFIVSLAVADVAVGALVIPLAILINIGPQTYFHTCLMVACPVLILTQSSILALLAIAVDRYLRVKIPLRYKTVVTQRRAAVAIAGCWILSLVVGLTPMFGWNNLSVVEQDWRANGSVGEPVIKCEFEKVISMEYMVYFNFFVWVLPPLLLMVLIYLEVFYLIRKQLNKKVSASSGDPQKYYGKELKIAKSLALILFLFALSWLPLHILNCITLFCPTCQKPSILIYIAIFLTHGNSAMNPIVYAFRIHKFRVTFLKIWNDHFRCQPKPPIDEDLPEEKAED
Briefly: Adenosine Receptor Binding--A1 Receptor Affinity (RBA1), [3H]-CHA, whole brain membranes. The note with it: read-out: RBA-1 IC50. As to the method:
Adenosine Receptor Binding--A1 Receptor Affinity (RBA1 )
Whole brain minus cerebellum and brainstem from male Long-Evans rats (150-200 g) was homogenized in 30 volumes of ice-cold 0.05M Tris-HCl buffer pH 7.7 using a Brinkman Polytron PT-10, (setting number 6 for 20 seconds) and centrifuged for ten minutes at 20,000 xg (Sorvall RC-2), 4° C. The supernatant was discarded, and the pellet was resuspended and centrifuged as before. The pellet was resuspended in 20 ml Tris-HCl buffer containing two International Units/ml of adenosine deaminase (Sigma type III from calf intestinal mucosa), incubated at 37° C. for 30 minutes, then subsequently at 0° C. for ten minutes. The homogenate was again centrifuged, and the final pellet was resuspended in ice-cold 0.05M Tris-HCl buffer pH 7.7 to a concentration of 20 mg/ml original wet tissue weight and used immediately.
Tissue homogenate (10 mg/ml) was incubated in 0.05M Tris-HCl buffer pH 7.7 containing 1.0 nM [^3 H]--N^6 -cyclohexyladenosine ([^3 H]--CHA) with or without test agents in triplicate for one hour at 25° C. Incubation volume was 2 ml. Unbound [^3 H]--CHA was separated by rapid filtration under reduced pressure through Whatman glass fiber (GF/B) filters. The filters were rinsed three times with 5 ml of ice cold 0.05M Tris-HCl buffer pH 7.7. The radio-labeled ligand retained on the filter was measured by liquid scintillation spectrophotometry after shaking the filters for one hour or longer on a mechanical shaker in 10 ml of Beckman Ready-Solv HP scintillation cocktail.
Nonspecific binding was defined as the binding which occurred in the presence of 1 mM theophylline. The concentration of test agent which inhibited 50% of the specific binding (IC50) was determined by nonlinear computer curve fit. The Scatchard plot was calculated by linear regression of the line obtained by plotting the amount of radioligand bound (pmoles/gram of tissue) [formula] Since the amount of radioligand bound was a small fraction of the total amount added, free radioligand was defined as the concentration of (nM) of radioligand added to the incubation mixture. The Hill coefficient was calculated by linear regression of the line obtained by plotting the log of the bound radioligand vs the log of the [formula] The maximal number of binding sites (Bmax) was calculated from the Scatchard plot.

The nature of series [1]: Mouse Activity and Screen Test Procedure (MAST): inhibition of spontaneous locomotion. Format: in vivo, Swiss-Webster male mice. The conditions noted are these: IP, 1 h, read-out: Inhibition of motor activity. The source says: (§1) The compounds of the invention are new chemical substances which are useful as pharmaceutical agents for the treatment of psychoses. The antipsychotic activity of representative compounds of the invention was established by the Mouse Activity and Screen Test Procedure (MAST) described below. Animals Nine unfasted Swiss-Webster male mice weighing 20-30 g are equally divided into three groups for each drug dose to be tested. That is, data for each dose level was generated by three separate groups of three mice each. Drugs A minimum of three dose levels (10, 30, and 100 mg/kg) are tested for each drug. Treatments are administered intraperitoneally one hour prior to testing. All dosages are calculated as parent compound and given in volumes of 10 ml/kg. Compounds are dissolved or suspended in 0.2% Methocel. Control animals are injected with Methocel. Testing A two part testing procedure is started one hour postinjection. First, the screen test (ST) is performed (see Pharmac. Biochem. Behav. 6, 351-353, 1977). Briefly this test consists of placing mice on individual wire screens which are then rotated 180 degrees at the start of a 60 second observation period. The number of mice falling off the inverted screen is recorded. Immediately following the screen test, the final phase of testing is initiated by placing each group of three mice in one actophotometer (Life Sciences, 22, 1067-1076, 1978). The actophotometer consists of a cylindrical chamber whose center is occupied by another cylinder which contains the illumination for six photocells located on the perimeter of the chamber. Six light-beam interruptions equal one count. Locomotor activity is recorded by computer at ten minute intervals for 60 minutes. Data The data obtained from the screen test are expressed as percent of mice falling off the screen. Data derived from locomotor activity of drug treated mice are compared to the activity of vehicle treated animals and are expressed as percent inhibition of spontaneous locomotion. All percentages reported for inhibition of locomotion (LI) are based upon data accumulated for one hour. Both phases of testing are graded: A=60-100%; C=31-59%; and N=0-30%. An overall dose rating is obtained by the following criteria: […]

Series [2] in a line: Mouse Activity and Screen Test Procedure (MAST): screen test. Format: in vivo, Swiss-Webster male mice. The note with it: IP.
From the text: as §1, with “recorded.” for “recorded. Immediately following the screen test, the final phase of testing is initiated by placing each group of three mice in one actophotometer (Life Sciences, 22, 1067-1076, 1978). The actophotometer consists of a cylindrical chamber whose center is occupied by another cylinder which contains the illumination for six photocells located on the perimeter of the chamber. Six light-beam interruptions equal one count. Locomotor activity is recorded by computer at ten minute intervals for 60 minutes.”

As for `OC[C@H]1O[C@@H](n2cnc3c(NCC4(c5ccccc5)CCC4)ncnc32)[C@H](O)[C@@H]1O` [Example 7, N6-((1-Phenylcyclobutyl)methyl)adenosine], the half-inhibitory concentration (IC50) (usually the concentration needed to halve the response being measured) on adenosine A1 receptor was determined as 16 nM. In addition, the inhibition in vivo at 1 mg/kg in series [1] (1.0 mg/kg) turned out to be 5%. For the same molecule, the inhibition in vivo at 3 mg/kg in series [1] stood at 21%. The inhibition in vivo at 10 mg/kg in series [1] turned out to be 82%. In addition, the “Inhibition of screen test failure” value in series [2] (1.0 mg/kg), in series [2] (3 mg/kg) and in series [2] (10 mg/kg) was 0% throughout.
Regarding `OC[C@H]1O[C@@H](n2cnc3c(NCC4(c5ccccc5)CCCC4)ncnc32)[C@H](O)[C@@H]1O` [Example 10, N6-((1-Phenylcyclopentyl)methyl)adenosine], the IC50 at adenosine A1 receptor is 110 nM. The inhibition in vivo at 3 mg/kg in series [1] is -7%. In addition, in series [1], the inhibition in vivo at 10 mg/kg came to 12%. For the same molecule, the inhibition in vivo at 30 mg/kg in series [1] was 49%. The results for the “Inhibition of screen test failure” value in series [2] (3 mg/kg), in series [2] (10 mg/kg) and in series [2] (30 mg/kg) were 11%, 0% and 22%, respectively.
On to `OC[C@H]1O[C@@H](n2cnc3c(NCC4(c5cccs5)CCC4)ncnc32)[C@H](O)[C@@H]1O` [Example 9, N6-((1-Thien-2-ylcyclobutyl)methyl)adenosine], for which the IC50 on adenosine A1 receptor worked out at 5.6 nM. In series [1], the inhibition in vivo at 3 mg/kg came to 43%, the inhibition in vivo at 10 mg/kg is 86% and the inhibition in vivo at 30 mg/kg was 94%. Further, the “Inhibition of screen test failure” value in series [2] (3 mg/kg) worked out at 0%. Also, the “Inhibition of screen test failure” value in series [2] (10 mg/kg) came out at 0%. In series [2] (30 mg/kg), the “Inhibition of screen test failure” value stood at 0%.
